Laboratory results: US20070203224A1, “SMALL-MOLECULES FOR TREATING CANCER AND ABNORMAL CELL PROLIFERATION DISORDERS” (University of Southern California, priority 2006, published 2007)

Legend:
[1] = test system: MD-MBA-435 (p53 mutant) breast cancer cells; test: MTT assay (cytotoxicity); assay type: cell-based; conditions: Homo sapiens, 72 hours exposure, read-out: Anticancer Activity (IC50)
Experimental: (§1) The cytotoxicity of the several representative compounds have been evaluated using MTT assay. Briefly, cells were seeded in 96-well microtiter plates (HCT16 p53+/+ (wild type), HCTp53−/− (p53 negative) colon cancer cells and MD-MBA-435 (p53 mutant) breast cancer cells at 4,000 cells/well) and allowed to attach. Cells were subsequently treated with a continuous exposure to the corresponding drug for 72 hours. A 3-(4,5-dimethylthiazol-2-yl)-2,5-diphenyltetrazolium bromide solution (at a final concentration of 0.5 mg/mL) was added to each well, and cells were incubated for 4 hours at 37° C. After removal of the medium, DMSO was added and the absorbance was read at 570 nm. All assays were done in triplicate. The IC50 was then determined for each drug from a plot of log (drug concentration) versus percentage of cell kill.

[2] = test system: HCT16 p53+/+ (wild type) colon cancer cells; test: MTT assay (cytotoxicity); assay type: cell-based; conditions: Homo sapiens, 72 hours exposure, read-out: Anticancer Activity (IC50)
Experimental: as §1

MCF7 breast cells = test: MTT assay (cytotoxicity); assay type: cell-based; conditions: Homo sapiens, read-out: Anticancer Activity (IC50)
Experimental: [The procedure below names another cell line; the source lists this cell line under the same test.] as §1

[3] = test system: HCTp53−/− (p53 negative) colon cancer cells; test: MTT assay (cytotoxicity); assay type: cell-based; conditions: Homo sapiens, 72 hours exposure, read-out: Anticancer Activity (IC50)
Experimental: as §1

[4] = test system: NIH 189 mouse fibroblast cells; test: MTT assay (cytotoxicity); assay type: cell-based; conditions: read-out: Anticancer Activity (IC50)
Experimental: [The procedure below names another organism; the source lists this organism under the same test.] as §1

[5] = test system: NIH3T3 mouse fibroblast cells; test: MTT assay (cytotoxicity); assay type: cell-based; conditions: read-out: Anticancer Activity (IC50)
Experimental: [The procedure below names another organism; the source lists this organism under the same test.] as §1

HCT116p53+/+ cells = test: Cell cycle analysis by propidium iodide DNA staining; assay type: cell-based, human; conditions: 1 μM
Experimental: Cell cycle perturbations induced by the representative compounds were analyzed by propidium iodide DNA staining. […] At the end of each treatment time, cells were collected and washed with PBS after a gentle centrifugation at 200×g for 5 minutes. Cells were thoroughly resuspended in 0.5 mL of PBS and fixed in 70% ethanol for at least 2 hours at 4° C. Ethanol-suspended cells were then centrifuged at 200×g for 5 minutes and washed twice in PBS to remove residual ethanol. For cell cycle analysis, the pellets were suspended in 1 mL of PBS containing 0.02 mg/mL of propidiumiodide, 0.5 mg/mL of DNase-free RNase A and 0.1% of Triton X-100 and incubated at 37° C. for 30 minutes. Cell cycle profiles were obtained using a FACScan flowcytometer (Becton Dickinson, San Jose, Calif.) and data were analyzed by ModFit LT software (Verity Software House, Inc., Topsham, Me.).

[6] = test system: panel of human cancer cell lines; test: Anticancer activity in a panel of human cancer cell lines; assay type: cell-based; conditions: result in words
Experimental: Anticancer activities and cell cycle perturbations induced by a number of representative compounds have been evaluated using MTT and cell cycle analysis assays.
as §1

MDA-MB-435 cells = test: Drug treatment of tumor xenografts in athymic nude mice; assay type: in vivo
Experimental: 50 male athymic nude (nu/nu) mice (Charles River Laboratories, Wilmington, USA) were used for in vivo testing. The animals were fed ad libitum and kept in air-conditioned rooms at 20±2° C. with a 12 h light-dark period. Animal care and manipulation were in agreement with the University of Southern California (USC) institutional guidelines, which are in accordance with the Guidelines for the Care and Use of Laboratory Animals.
MDA-MB-435 cells from in vitro cell culture were inoculated s.c. in both flanks of athymic nude mice (2×10^6 cells/flank) under aseptic conditions. Tumor growth was assessed by biweekly measurement of tumor diameters with a Vernier caliper (length×width). Tumor weight was calculated according to the formula: TW (mg)=tumor volume (mm^3)=d^2×D/2, where d and D are the shortest and longest diameters, respectively. Cells were allowed to grow to an average volume of 100 mm^3. Animals were then randomly assigned for control and treatment groups to receive control vehicle or CT19 (10 and 20 mg/kg, dissolved in sesame oil) via i.p. injections once a day for 5 days. Treatment of each animal was based on individual body weight. After 5-day treatment, the tumor volumes in each group were measured once a week for four weeks. Treated animals were checked daily for treatment toxicity/mortality.
Assays were set up in triplicates and the results were expressed as means±SD. Statistical analysis and P-value determination were done by two-tailed paired t test with a confidence interval of 95% for determination of the significance differences between treatment groups. P<0.05 were considered to be significant. ANOVA was used to test for significance among groups. The SAS statistical software package (SAS institute) was used for statistical analysis.
The in vivo efficacy of CT19 was evaluated in nude mice inoculated with human breast MDA-MB-435 cells. Animals were treated with a daily i.p. injections of saline (controls) and CT19 at 10 mg/kg or 20 mg/kg. After five-days of dosing, the drug treatment was discontinued and the animals were monitored […].

[7] = 10 mg/kg or 20 mg/kg daily i.p. for five days

SMILES: C=C(C(=O)OC)[C@H](c1ccccc1)[C@@H](O)c1ccc(C#N)cc1 (stereo in doubt) [CT21, (3S,4R)-methyl 4-(4-cyanophenyl)-4-hydroxy-2-methylene-3-phenylbutanoate]
- IC50 [1]: 8 ± 2 µM
- IC50 [2]: 2 ± 1 µM
- IC50 (MCF7 breast cells): 3 µM
- IC50 [3]: 13 ± 2 µM

SMILES: C=C1C(=O)O[C@@H](c2ccc([N+](=O)[O-])cc2)[C@H]1c1ccc(C)cc1 [CT15]
- IC50 [1]: > 20 µM
- IC50 [2]: > 20 µM
- IC50 [3]: > 20 µM

SMILES: C=C1C(=O)O[C@@H](c2ccccc2)[C@H]1c1ccccc1 [CT13, (4S,5R)-3-methylene-4,5-diphenyl-dihydrofuran-2(3H)-one]
- IC50 [1]: 2 ± 2 µM
- IC50 [2]: 3 ± 3 µM
- IC50 [3]: 11 ± 2 µM

SMILES: C=C1C(=O)O[C@@H](c2ccccc2)C1c1ccccc1 (stereo in doubt) [CT14, (4S,5R)-3-methylene-4,5-diphenyl-dihydrofuran-2(3H)-one]
- IC50 [4]: 1 µM
- IC50 [1]: 2 ± 2 µM
- IC50 [2]: 2 ± 1 µM
- IC50 (MCF7 breast cells): 2 µM
- IC50 [3]: 8 ± 1 µM
- IC50 [5]: 2 µM
- G2/M arrest (HCT116p53+/+ cells): approximately 75%
- % cells in G0/G1 (HCT116p53+/+ cells; after 12 h): 11.9%
- % cells in G2/M (HCT116p53+/+ cells; after 12 h): 75.8%
- % cells in S (HCT116p53+/+ cells; after 12 h): 12.4%
- % cells in G0/G1 (HCT116p53+/+ cells; after 24 h): 12.6%
- % cells in G2/M (HCT116p53+/+ cells; after 24 h): 74.5%
- % cells in S (HCT116p53+/+ cells; after 24 h): 12.8%

SMILES: C=C(C(=O)OC)[C@@H](c1ccccc1)[C@H](O)c1ccc([N+](=O)[O-])cc1 [CT22]
- IC50 [4]: 3 µM
- IC50 [1]: 7 ± 5 µM
- IC50 [2]: 1 ± 1 µM
- IC50 (MCF7 breast cells): 3 µM
- IC50 [3]: 12 ± 4 µM
- IC50 [5]: 3.5 µM

SMILES: C=C1C(=O)O[C@@H](c2ccc([N+](=O)[O-])cc2)[C@@H]1c1ccc(C)cc1 [CT12]
- IC50 [1]: 3 ± 2 µM
- IC50 [2]: 4 ± 1 µM
- IC50 (MCF7 breast cells): 6 µM
- IC50 [3]: 7 ± 5 µM

SMILES: C=C1C(=O)O[C@@H](c2ccc([N+](=O)[O-])cc2)[C@H]1c1ccc(OC)cc1 [CT11]
- IC50 [1]: 2 ± 2 µM
- IC50 [2]: 2 ± 1 µM
- IC50 (MCF7 breast cells): 3 µM
- IC50 [3]: 9 ± 5 µM

SMILES: C=C1C(=O)O[C@@H](c2ccc([N+](=O)[O-])cc2)[C@H]1c1ccc(Cl)cc1 [CT16]
- IC50 [1]: 3 ± 2 µM
- IC50 [2]: 4 ± 2 µM
- IC50 (MCF7 breast cells): < 1 µM
- IC50 [3]: 18 ± 1 µM

SMILES: COc1cc(-c2c(C3OC(=O)C(C)=C3C)cc(OC)c(OC)c2OC)cc(OC)c1OC (stereo not shown) [CT20]
- IC50 [1]: > 20 µM
- IC50 [2]: 3 µM
- IC50 (MCF7 breast cells): > 20 µM
- IC50 [3]: > 20 µM

SMILES: COC(=O)/C(=C/c1ccccc1)CS(=O)(=O)c1ccc(C)cc1 [CT23, (Z)-methyl 3-phenyl-2-(tosylmethyl)acrylate]
- Anticancer activity in a panel of human cancer cell lines [6]: potent anticancer activity at low micromolar concentration
- IC50 [1]: 6 ± 3 µM
- IC50 [2]: 2 ± 2 µM
- IC50 (MCF7 breast cells): 15 µM
- IC50 [3]: 5 µM

SMILES: C=C1C(=O)O[C@@H](c2cc(OC)c(OC)c(OC)c2-c2cc(OC)c(OC)c(OC)c2)[C@H]1C [CT19]
- Apparent toxicity (MDA-MB-435 cells; [7]): without apparent toxicity
- Tolerability (MDA-MB-435 cells; [7]): well tolerated
- Tumor burden in breast xenografts (MDA-MB-435 cells; [7]): significantly reduced tumor burden
- Tumor growth (tumor weight) (MDA-MB-435 cells; 20 mg/kg daily i.p. for five days, monitored five weeks, p<0.05): significantly reduced tumor growth
- IC50 [1]: 5 µM
- IC50 [2]: 1 ± 1 µM
- IC50 (MCF7 breast cells): 4 µM
- IC50 [3]: 4 µM

SMILES: C=C1C(=O)O[C@@H](c2ccccc2)[C@@H]1C [CT10]
- IC50 [1]: 5 ± 3 µM
- IC50 [2]: 1 ± 1 µM
- IC50 [3]: 23 ± 2 µM
